The values below are quoted from earlier work in patent US20100035939A1, “PENETRATING CARRIER, ANTI-FUNGAL COMPOSITION USING THE SAME AND METHOD FOR TREATMENT OF DERMATOPHYTES” (priority 2004, published 2010).

The test system of this data set is fungal toenail.

Molecules are shown by their SMILES.

Turning to `CN(C/C=C/C#CC(C)(C)C)Cc1cccc2ccccc12` [terbinafine], under “in vivo, po”, the “patients with a serious reaction to the drug” value is “One in 500”. Besides, where the note is “oral administration, in the first year”, the “reoccurrence of the fungal toenail” value was 15%.
